Reference: patent US20160158280A1, “A METHOD FOR ORGAN ARREST, PROTECTION AND PRESERVATION AND REDUCING TISSUE INJURY” (priority 2013, published 2016)
Where “and” joins values, the source holds several entries; their conditions need not be identical. Equal values may be shown once.

How the values were obtained:
[1] = target: human NK(1) receptor (Homo sapiens, UniProt P25103); conditions: cited from earlier work
[2] = tested on: humans; conditions: oral and/or intravenous 10, 25, 50, and 100 mg/kg body weight; cited from earlier work
[3] = tested on: isolated guinea-pig mesenteric artery; test: Isolated guinea-pig mesenteric artery relaxation (pressure myograph, videomicroscopy); conditions: for relaxation of isolated intact mesenteric artery: AVP-constricted, 0.001 to 1 mM luminal or abluminal; for abluminal versus luminal relaxation: intact artery, adenosine: at 10 μM and 100 μM
Description: Male guinea pigs (250-300 g) were anesthetised and placed in a cradle and the abdomen opened. Second order mesenteric artery branches were isolated and mounted in a pressure myograph (see FIG. 4) under constant pressure of 60 mmHg and perfusion (luminal flow) of 100 uL/min with Krebs-Henseleit buffer (37° C.). Artery diameter was continuously measured using videomicroscopy (see FIG. 4). For the relaxation/vasodilation experiments arteries were equilibrated and then constricted with 10^−8 M arginine vasopressin (AVP). Adenosine, lidocaine or adenosine-lidocaine together were administered 2) luminally and 2) abluminally and concentration curves were obtained. Stock solutions of adenosine and lidocaine alone or adenosine-lidocaine combined were made in deionized water to 20 mM. A range of volumes were pipetted to provide contact concentrations with the vessel lumen or outer wall that ranged from 0.001 to 1 mM. At the end of experiments, arteries were dilated using calcium-free solution to obtain 100% relaxation. A number of arteries were denuded by introducing 5 ml air into the lumen with flow rate 1000 μl/min. The air outflow was then clamped until the intraluminal pressure reached 70 mmHg, flow rate was reduced to 2 μl/min and the vessel remained pressurized for 10 minutes

[4] = 400 mg daily tablets; cited from earlier work
[5] = cited from earlier work

Sequence of human NK(1) receptor (P25103 whole entry): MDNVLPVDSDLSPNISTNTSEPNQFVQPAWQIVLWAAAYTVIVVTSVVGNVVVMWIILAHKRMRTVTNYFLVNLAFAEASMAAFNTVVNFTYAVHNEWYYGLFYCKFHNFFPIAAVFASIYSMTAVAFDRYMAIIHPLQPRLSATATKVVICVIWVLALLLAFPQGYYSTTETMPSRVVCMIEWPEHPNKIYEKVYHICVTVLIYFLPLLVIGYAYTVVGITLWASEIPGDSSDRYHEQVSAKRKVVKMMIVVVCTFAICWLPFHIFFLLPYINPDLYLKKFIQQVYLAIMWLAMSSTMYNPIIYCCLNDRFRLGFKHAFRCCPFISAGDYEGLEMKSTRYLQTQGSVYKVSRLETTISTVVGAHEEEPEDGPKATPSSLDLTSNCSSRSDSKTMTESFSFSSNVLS

Compound | relaxation of isolated intact mesenteric artery [3] | relaxation of mesenteric artery ([3]; endothelium absent (denuded)) | relaxation of mesenteric artery ([3]; endothelium present) | abluminal versus luminal relaxation [3] | also measured
Cc1cccc(C)c1NC(=O)C[C@H]1CCN(C(=O)c2cc(C(F)(F)F)cc(C(F)(F)F)c2)[C@@H](Cc2ccccc2)C1.O=C(O)C[C@H](O)C(=O)O (relative stereo) [R116301, (2R-trans)-4-[1-[3,5-bis(trifluoromethyi)benzoyl]-2-(phenylmethyl)-4-piperidinyl]-N-(2,6-dimethylphenyl)-1-acetamide (S)-Hydroxybutanedioate] |  |  |  |  | selectivity toward NK(2) and NK(3) receptors [1]: over 200 fold; Ki ([1]; human NK(1) receptor): 0.45 nM
NC(=O)c1ncn([C@@H]2O[C@H](CO)[C@@H](O)[C@H]2O)c1N [Acadesine, 5-amino-4-imidazole carboxamide ribonucleoside] |  |  |  |  | safety in humans [2]: safe in humans
CCN(CC)CC(=O)Nc1c(C)cccc1C [lidocaine] | failed to produce relaxation | relaxed the artery | did not significantly change mesenteric artery diameter | no significant difference | 
OCCN(CCO)c1nc(N2CCCCC2)c2nc(N(CCO)CCO)nc(N3CCCCC3)c2n1 [Dipyridamole] |  |  |  |  | plasma level [4]: about 0.4 μg/ml and 0.8 μM
Nc1ncnc2c1ncn2[C@@H]1O[C@H](CO)[C@@H](O)[C@H]1O [adenosine] | increased relaxation | relaxed the mesenteric artery in a dose dependent manner | relaxed the mesenteric artery in a dose dependent manner | significantly more relaxation | half life in the blood [5]: about 10 seconds
